Test results published in patent US8785439B2, “2,5,7-substituted oxazolopyrimidine derivatives” (Sanofi, priority 2010, dated 2014).

Biological target: T1, human Edg-1 receptor (Homo sapiens, UniProt P21453)
T1 construct: FLAG (N); expressed in transfected cells; membrane preparation
Assay: GTP-γ-S assay using human Edg-1 receptors (SPA, CHO Flp-In cell membrane preparation)
Format: biochemical
Details: test compound at 10 μM; high control 10 μM S1P regarded as 100% activation; background-corrected; triplicate
Description: Determination of the Pharmacological Activity A) GTP-γ-S Assay Using Human Edg-1 Receptors
In order to determine the Edg-1 receptor activation by the compounds of the invention, a GTP-γ-S (guanosine 5′-[γ-thio]triphosphate) assay for G-protein coupled receptor binding based on the scintillation proximity assay principle was used, employing a cell membrane preparation from a CHO Flp-In cell line which constitutively overexpresses the human Edg-1 receptor.
The Flp-In™ expression system (Invitrogen, cat. no. K6010-01) allows the generation of stable mammalian cell lines into which the gene of interest has been integrated through homologous recombination at a specific genomic location called Flp Recombination Target (FRT) site by means of a Flp recombinase encoded by the pOG44 expression plasmid. The integration of the pcDNA5/FRT expression construct into the Flp-In host cell line genome results in the transcription of the gene of interest. The stably transfected cells become hygromycin-resistant.
One day prior to transfection, 200 000 Flp-In-CHO cells were seeded in Ham F-12 medium (Invitrogen, cat. no. 31765) supplemented with 10% fetal calf serum (FCS; Perbio Science, cat. no. SH30068.03) in a 6-well plate and incubated at 37° C./5% CO2 overnight. Using the FuGENE® 6 transfection reagent (Roche, cat. no. 11988387001), cells were cotransfected with the Flp recombinase expression plasmid pOG44 and a modified plasmid additionally containing the edg-1 gene (accession no. NM_001400) termed as pcDNA5-FRT-TO_nFLAG_DEST-EDG-1 with a 9:1 ratio. To obtain the modified pcDNA5-FRT-TO_nFLAG_DEST plasmid, the Invitrogen plasmid pcDNA5/FRT/TO (Invitrogen, cat. no. V6520-20) was adapted to the Gateway® (Invitrogen) cloning system by inserting a Gateway cassette containing attR recombination sites flanking a ccdB gene and a chloramphenicol-resistance gene (Gateway conversion system, Invitrogen, cat. no. 11828-029). In addition a FLAG tag epitope was added before the 5′ att recombination site to allow recombinant expression of N-terminally FLAG-tagged proteins.
For the transfection of one well, 1.08 μg of pOG44 and 0.12 μg of pcDNA5-FRT-TO_nFLAG_DEST-EDG-1 were mixed with 100 μl of serum-free Ham F-12 medium containing 6 μl of FuGENE® 6 transfection reagent. After 20 min of incubation, the transfection reagent/DNA complex was distributed dropwise on the cells. The cells were incubated for 24 h at 37° C. Then the cells from 3 wells each were transferred to a T75 flask (Greiner Cellstar®, cat. no. 658175) containing Ham F-12 medium supplemented with 10% of FCS but without antibiotic and were incubated another 24 h. 48 h after transfection, the medium was replaced by selection medium (Ham F-12 supplemented with 10% of FCS and 300 μg/ml of hygromycin B (Invitrogen, cat. no. 10687-010)). The medium was exchanged every 2 to 3 days until a resistant population of cells had grown. […] After 2 weeks of selection, the cells were transferred into T175 flasks (Greiner Cellstar®, cat. no. 660175) and cultivated for batch production. Cells were harvested from the culture flasks by short treatment (2 to 5 min) with Accutase (PAA, cat. no. L11-007), resuspended in selection medium (see above) and centrifuged at 200×g for 5 min. Cells were resuspended in a mixture of 90% of FCS and 10% of dimethylsulfoxide and stored frozen in liquid nitrogen.
A membrane preparation was obtained by standard methods from the afore-described CHO Flp-In cell line constitutively overexpressing the human Edg-1 receptor. Briefly, the cryopreserved cells were taken in culture and grown until confluency in T175 cell culture flasks (Becton Dickinson, cat. no. 35 5001). […]

T1 sequence (P21453 whole entry): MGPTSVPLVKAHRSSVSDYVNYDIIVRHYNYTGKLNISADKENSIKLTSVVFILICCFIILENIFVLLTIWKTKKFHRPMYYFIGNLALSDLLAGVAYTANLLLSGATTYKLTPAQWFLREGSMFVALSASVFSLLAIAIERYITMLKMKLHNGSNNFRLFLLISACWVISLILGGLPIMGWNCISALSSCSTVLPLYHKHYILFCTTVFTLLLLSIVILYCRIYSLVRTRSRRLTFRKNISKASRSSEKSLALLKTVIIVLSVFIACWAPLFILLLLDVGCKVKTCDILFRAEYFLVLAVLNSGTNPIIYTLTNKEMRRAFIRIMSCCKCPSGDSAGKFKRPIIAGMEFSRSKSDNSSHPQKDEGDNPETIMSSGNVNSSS

| Compound | % Activation (Edg-1 receptor activation in percent of the activation by 10 μM S1P) [%] |
| --- | --- |
| 5-(2-fluoro-phenoxy)-2-(1-oxy-pyridin-3-yl)-7-propoxy-oxazolo[5,4-d]pyrimidine [Example 109] | 108 |

Same assay, conditions: test compound at 10 μM; high control 10 μM S1P regarded as 100% activation; background-corrected; triplicate; read-out: % Activation (Edg-1 receptor activation in percent of the activation by 10 μM S1P)

| Compound | activation at 10 µM [%] |
| --- | --- |
| CCCOc1nc(Oc2ccc(Cl)c(Cl)c2)nc2oc(-c3cccc(C)c3)nc12 [Example 1, 5-(3,4-Dichloro-phenoxy)-7-propoxy-2-(3-methyl-phenyl)-oxazolo[5,4-d]pyrimidine] | 62 |
| CCCOc1nc(OC2CCCCC2)nc2oc(-c3cccc(C)c3)nc12 [Example 2, 5-Cyclohexyloxy-7-propoxy-2-(3-methyl-phenyl)-oxazolo[5,4-d]pyrimidine] | 90 |
| CCCOc1nc(NC2CCOCC2)nc2oc(-c3cccc(C)c3)nc12 [Example 3, (7-Propoxy-2-(3-methyl-phenyl)-oxazolo[5,4-d]pyrimidin-5-yl)-(tetrahydro-pyran-4-yl)-amine] | 74 |
| CCCOc1nc(Sc2nccs2)nc2oc(-c3cccc(C)c3)nc12 [Example 4] | 93 |
| CCCOc1nc(Oc2ccccc2F)nc2oc(-c3cc(C)c(OC)c(C)c3)nc12 [Example 5, 5-(2-Fluoro-phenoxy)-2-(4-methoxy-3,5-dimethyl-phenyl)-7-propoxy-oxazolo[5,4-d]pyrimidine] | 111 |
| CCCOc1nc(Oc2ccccc2F)nc2oc(-c3cc(C)c(O)c(C)c3)nc12 [Example 6, 5-(2-Fluoro-phenoxy)-2-(4-hydroxy-3,5-dimethyl-phenyl)-7-propoxy-oxazolo[5,4-d]pyrimidine] | 105 |
| CCOc1nc(Oc2ccccc2F)nc2oc(-c3ccc[n+]([O-])c3)nc12 [Example 7, 7-Ethoxy-5-(2-fluoro-phenoxy)-2-(1-oxy-pyridin-3-yl)-oxazolo[5,4-d]pyrimidine] | 116 |
| COc1c(C)cc(-c2nc3c(OC4COC4)nc(Oc4ccccc4F)nc3o2)cc1C [Example 8, 5-(2-Fluoro-phenoxy)-2-(4-methoxy-3,5-dimethyl-phenyl)-7-(oxetan-3-yloxy)-oxazolo[5,4-d]pyrimidine] | 124 |
| C=CCCCOc1nc(OCCC)c2nc(-c3cccc(C)c3)oc2n1 [Example 9, 5-Pent-4-enyloxy-7-propoxy-2-(3-methylphenyl)-oxazolo[5,4-d]pyrimidine] | 87 |
| CCOc1nc(Oc2cc(C)nn2C)nc2oc(-c3cc(F)ccc3Cl)nc12 [Example 10, 2-(2-chloro-5-fluoro-phenyl)-5-(2,5-dimethyl-2H-pyrazol-3-yloxy)-7-ethoxy-oxazolo[5,4-d]pyrimidine] | 107 |
| Cc1cc(Oc2nc(OCC3CC3)c3nc(-c4cc(F)ccc4Cl)oc3n2)n(C)n1 [Example 11, 2-(2-chloro-5-fluoro-phenyl)-7-cyclopropylmethoxy-5-(2,5-dimethyl-2H-pyrazol-3-yloxy)-oxazolo[5,4-d]pyrimidine] | 105 |
| CCOc1nc(Sc2ccc(F)c(F)c2)nc2oc(-c3cccc(C)c3)nc12 [Example 12, 5-(3,4-difluoro-phenylsulfanyl)-7-ethoxy-2-(3-methyl-phenyl)-oxazolo[5,4-d]pyrimidine] | 84 |
| O=S1(=O)CCC(Sc2nc(OCC3CC3)c3nc(-c4cc(F)ccc4Cl)oc3n2)C1 (centres unmarked) [Example 13, 2-(2-chloro-5-fluoro-phenyl)-7-cyclopropylmethoxy-5-(1,1-dioxo-tetrahydro-1lambda6-thiophen-3-ylsulfanyl)-oxazolo[5,4-d]pyrimidine] | 104 |
| CCCOc1nc(SC2CCS(=O)(=O)C2)nc2oc(-c3cccc(F)c3)nc12 (centres unmarked) [Example 14, 5-(1,1-dioxo-tetrahydro-1lambda6-thiophen-3-ylsulfanyl)-2-(3-fluoro-phenyl)-7-propoxy-oxazolo[5,4-d]pyrimidine] | 72 |
| CCCOc1nc(Oc2ccccc2F)nc2oc(-c3ccc(Cl)c(Cl)c3)nc12 [Example 15, 2-(3,4-dichloro-phenyl)-5-(2-fluoro-phenoxy)-7-propoxy-oxazolo[5,4-d]pyrimidine] | 95 |
| C=CCCCOc1nc(OCC2CC2)c2nc(-c3cccc(C)c3)oc2n1 [Example 16, 7-cyclopropylmethoxy-5-pent-4-enyloxy-2-(3-methyl-phenyl)-oxazolo[5,4-d]pyrimidine] | 83 |
| CCOc1nc(Oc2cccc(S(=O)(=O)N(C)C)c2)nc2oc(-c3cccc(C)c3)nc12 [Example 17, 3-(7-ethoxy-2-(3-methyl-phenyl)-oxazolo[5,4-d]pyrimidin-5-yloxy)-N,N-dimethyl-benzenesulfonamide] | 55 |
| CCCOc1nc(Oc2ccc(C)nn2)nc2oc(-c3cccc(F)c3)nc12 [Example 18, 2-(3-fluoro-phenyl)-5-(6-methyl-pyridazin-3-yloxy)-7-propoxy-oxazolo[5,4-d]pyrimidine] | 42 |
| CCCOc1nc(Oc2ccc(C)nn2)nc2oc(-c3cccc(C)c3)nc12 [Example 19, 5-(6-methyl-pyridazin-3-yloxy)-7-propoxy-2-(3-methyl-phenyl)-oxazolo[5,4-d]pyrimidine] | 62 |
| CCCOc1nc(Oc2cccc(S(N)(=O)=O)c2)nc2oc(-c3cccc(C)c3)nc12 [Example 20, 3-(7-propoxy-2-(3-methyl-phenyl)-oxazolo[5,4-d]pyrimidin-5-yloxy)-benzenesulfonamide] | 83 |
| CCOc1nc(Oc2cccc(S(N)(=O)=O)c2)nc2oc(-c3cc(F)ccc3Cl)nc12 [Example 21, 3-[2-(2-chloro-5-fluoro-phenyl)-7-ethoxy-oxazolo[5,4-d]pyrimidin-5-yloxy]-benzenesulfonamide] | 81 |
| CCOc1nc(Oc2cccc(S(N)(=O)=O)c2)nc2oc(-c3cccc(C)c3)nc12 [Example 22, 3-(7-ethoxy-2-(3-methyl-phenyl)-oxazolo[5,4-d]pyrimidin-5-yloxy)-benzenesulfonamide] | 100 |
| CCCOc1nc(Oc2cccc(S(N)(=O)=O)c2)nc2oc(-c3cccc(F)c3)nc12 [Example 23, 3-[2-(3-fluoro-phenyl)-7-propoxy-oxazolo[5,4-d]pyrimidin-5-yloxy]-benzenesulfonamide] | 47 |
| CCCOc1nc(Oc2cc(C)nn2C)nc2oc(-c3cccc(F)c3)nc12 [Example 24, 5-(2,5-dimethyl-2H-pyrazol-3-yloxy)-2-(3-fluoro-phenyl)-7-propoxy-oxazolo[5,4-d]pyrimidine] | 99 |
| CCCOc1nc(Oc2cc(C)nn2C)nc2oc(-c3cccc(C)c3)nc12 [Example 25, 5-(2,5-dimethyl-2H-pyrazol-3-yloxy)-7-propoxy-2-(3-methyl-phenyl)-oxazolo[5,4-d]pyrimidine] | 110 |
| CCOc1nc(Oc2cc(C)nn2C)nc2oc(-c3cccc(C)c3)nc12 [Example 26, 5-(2,5-dimethyl-2H-pyrazol-3-yloxy)-7-ethoxy-2-(3-methyl-phenyl)-oxazolo[5,4-d]pyrimidine] | 101 |
| CCCOc1nc(SC2CCS(=O)(=O)C2)nc2oc(-c3cccc(C)c3)nc12 (centres unmarked) [Example 27, 5-(1,1-dioxo-tetrahydro-1lambda6-thiophen-3-ylsulfanyl)-7-propoxy-2-(3-methyl-phenyl)-oxazolo[5,4-d]pyrimidine] | 93 |
| Cc1cccc(-c2nc3c(OCC4CC4)nc(SC4CCS(=O)(=O)C4)nc3o2)c1 (centres unmarked) [Example 28, 7-cyclopropylmethoxy-5-(1,1-dioxo-tetrahydro-1lambda6-thiophen-3-ylsulfanyl)-2-(3-methyl-phenyl)-oxazolo[5,4-d]pyrimidine] | 69 |
